Results on 26 molecules are retold here after patent US20220153745A1, “DISUBSTITUTED BENZOTHIENYL-PYRROLOTRIAZINES AND THEIR USE AS FGFR KINASE INHIBITORS” (Bayer Intellectual Property GmbH, priority 2011, published 2022).

Test [1] has as its system Human umbilical vein endothelial cells (HUVEC). Kind of test: Inhibition of hFGF-2 mediated HUVEC proliferation. The format is cell-based. The conditions noted are these: 72 h.
Test [2] addresses T1, mTOR (Homo sapiens, UniProt P42345).
T1 construct: human mTOR amino acids from 1360 to 2549; purchased Invitrogen 4753; host or cells: insect cells
Kind of test: mTOR kinase assay (TR-FRET, for comparative purposes). It is filed as biochemical. The note with it: read-out: mTOR % inhibition @ 1 μM, mean inhibition at 1 μM test compound, 40 μM ATP.

SMILES strings stand for the structures. Counter-ions that a name gives are not always drawn.

T1 sequence (P42345 1360-2549): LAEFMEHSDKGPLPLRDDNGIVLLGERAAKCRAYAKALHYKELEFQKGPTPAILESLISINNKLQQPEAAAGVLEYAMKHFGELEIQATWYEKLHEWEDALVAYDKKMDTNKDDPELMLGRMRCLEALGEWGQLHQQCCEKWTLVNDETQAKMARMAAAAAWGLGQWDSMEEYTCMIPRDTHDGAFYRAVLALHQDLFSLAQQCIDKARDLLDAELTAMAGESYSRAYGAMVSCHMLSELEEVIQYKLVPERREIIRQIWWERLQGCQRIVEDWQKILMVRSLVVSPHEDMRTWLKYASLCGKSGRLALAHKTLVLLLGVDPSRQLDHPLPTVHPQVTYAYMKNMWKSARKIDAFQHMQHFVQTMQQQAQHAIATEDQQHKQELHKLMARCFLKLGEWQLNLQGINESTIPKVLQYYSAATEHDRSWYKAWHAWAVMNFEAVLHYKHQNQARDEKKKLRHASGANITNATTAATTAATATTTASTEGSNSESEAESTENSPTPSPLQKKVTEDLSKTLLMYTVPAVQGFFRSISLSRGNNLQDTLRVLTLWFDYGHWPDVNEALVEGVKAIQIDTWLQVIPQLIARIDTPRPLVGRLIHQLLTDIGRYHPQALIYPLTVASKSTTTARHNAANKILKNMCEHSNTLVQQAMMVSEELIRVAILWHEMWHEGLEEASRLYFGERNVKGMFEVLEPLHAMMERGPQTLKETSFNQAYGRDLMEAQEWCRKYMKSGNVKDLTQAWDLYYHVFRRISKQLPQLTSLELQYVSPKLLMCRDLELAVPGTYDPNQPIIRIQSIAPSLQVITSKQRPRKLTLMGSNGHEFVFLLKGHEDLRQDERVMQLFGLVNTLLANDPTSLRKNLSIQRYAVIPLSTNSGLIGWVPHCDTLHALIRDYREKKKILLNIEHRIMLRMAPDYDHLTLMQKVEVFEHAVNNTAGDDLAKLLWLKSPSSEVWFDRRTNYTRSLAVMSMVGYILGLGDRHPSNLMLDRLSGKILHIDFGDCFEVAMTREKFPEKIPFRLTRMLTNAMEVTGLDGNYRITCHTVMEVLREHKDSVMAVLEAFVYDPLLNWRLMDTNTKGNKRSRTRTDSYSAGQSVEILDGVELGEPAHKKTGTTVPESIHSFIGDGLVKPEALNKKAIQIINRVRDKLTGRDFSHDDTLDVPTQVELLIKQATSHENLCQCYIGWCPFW

On to `COc1cc(C)cc2cc(-c3c(CO)c(C(C)(C)O)n4ncnc(N)c34)sc12` [Example 73, 2-[4-Amino-6-(hydroxymethyl)-5-(7-methoxy-5-methyl-1-benzothiophen-2-yl)pyrrolo[2,1-f][1,2,4]-triazin-7-yl]propan-2-ol], for which inhibition in test [1] was half-maximal at 5.5 nM (IC50). In addition, the inhibition (commonly the percentage by which the read-out fell short of the control) at 1 µM in test [2] turned out to be 18.5%. As to `COc1cc(C)cc2cc(-c3c(CO)c(CN4CCNC(=O)C4)n4ncnc(N)c34)sc12` [Example 13, 4-{[4-Amino-6-(hydroxymethyl)-5-(7-methoxy-5-methyl-1-benzothiophen-2-yl)pyrrolo[2,1-f][1,2,4]-triazin-7-yl]methyl}piperazin-2-one], the IC50 (in general, the midpoint of a concentration-inhibition curve) in test [1] was 17 nM. For the same molecule, the inhibition at 1 µM in test [2] amounted to 14.9%.

In the case of `COc1cc(C)cc2cc(-c3c(CN4CCNC(=O)C4)c(CN4CCOCC4)n4ncnc(N)c34)sc12` [Example 52, 4-{[4-Amino-5-(7-methoxy-5-methyl-1-benzothiophen-2-yl)-7-(morpholin-4-ylmethyl)pyrrolo[2,1-f][1,2,4]triazin-6-yl]methyl}piperazin-2-one], the IC50 in test [1] came to 4 nM. The inhibition at 1 µM in test [2] amounted to 4.2%. As for `COc1cc(C)cc2cc(-c3c(CN[C@@H]4CCNC4=O)c(CN4CCN(C(C)=O)CC4)n4ncnc(N)c34)sc12` [Example 56, (3R)-3-[({7-[(4-Acetylpiperazin-1-yl)methyl]-4-amino-5-(7-methoxy-5-methyl-1-benzothiophen-2-yl)pyrrolo[2,1-f][1,2,4]triazin-6-yl}methyl)amino]pyrrolidin-2-one], the IC50 in test [1] amounted to 18.1 nM. Besides, the inhibition at 1 µM in test [2] was found to be 16.1%. The like results for `COc1cc(C)cc2cc(-c3c(CN4CCNC(=O)C4)c(C(C)(C)O)n4ncnc(N)c34)sc12` [Example 74, 4-{[4-Amino-7-(2-hydroxypropan-2-yl)-5-(7-methoxy-5-methyl-1-benzothiophen-2-yl)pyrrolo[2,1-f][1,2,4]triazin-6-yl]methyl}piperazin-2-one] were, in that order, 0.2 nM and 18.6%. The like results for `COc1cc(C)cc2cc(-c3c(CNC(C)=O)c(CNC(C)=O)n4ncnc(N)c34)sc12` [Example 72, N,N′-{[4-Amino-5-(7-methoxy-5-methyl-1-benzothiophen-2-yl)pyrrolo[2,1-f][1,2,4]triazine-6,7-diyl]bis(methylene)}diacetamide] were, in that order, 1.6 nM and 8.2%.

In test [1], `COc1cc(C)cc2cc(-c3c(COCC(N)=O)c(CN4CCN(C(C)=O)CC4)n4ncnc(N)c34)sc12` [Example 34, 2-({7-[(4-Acetylpiperazin-1-yl)methyl]-4-amino-5-(7-methoxy-5-methyl-1-benzothiophen-2-yl)pyrrolo[2,1-f][1,2,4]triazin-6-yl}methoxy)acetamide] registered an IC50 of 37.3 nM. For the same molecule, the inhibition at 1 µM in test [2] came to 25.9%. Regarding `COc1cc(C)cc2cc(-c3c(CNCC(C)(C)O)c(CN4CCN(C(C)=O)CC4)n4ncnc(N)c34)sc12` [Example 57, 1-(4-{[4-Amino-6-{[(2-hydroxy-2-methylpropyl)amino]methyl}-5-(7-methoxy-5-methyl-1-benzothiophen-2-yl)pyrrolo[2,1-f][1,2,4]triazin-7-yl]methyl}piperazin-1-yl)ethanone], the midpoint of inhibition in test [1], the IC50, lay at 3.2 nM. The inhibition at 1 µM in test [2] was found to be 2%. `COc1cc(C)cc2cc(-c3c(CO)c(C#N)n4ncnc(N)c34)sc12` [Example 68, 4-Amino-6-(hydroxymethyl)-5-(7-methoxy-5-methyl-1-benzothiophen-2-yl)pyrrolo[2,1-f][1,2,4]-triazine-7-carbonitrile] had an IC50 in test [1] of 14.4 nM. Further, in test [2], the inhibition at 1 µM worked out at 8%. For `COc1cc(C)cc2cc(-c3c(C)c(CN4CCNCC4)n4ncnc(N)c34)sc12` [Example 84, 5-(7-Methoxy-5-methyl-1-benzothiophen-2-yl)-6-methyl-7-(piperazin-1-ylmethyl)pyrrolo[2,1-f][1,2,4]triazin-4-amine formiate], in that order: 46.6 nM and 9.1%. For `COc1cc(C)cc2cc(-c3c(COCCO)c(CN4CCNC(=O)C4)n4ncnc(N)c34)sc12` [Example 21, 4-({4-Amino-6-[(2-hydroxyethoxy)methyl]-5-(7-methoxy-5-methyl-1-benzothiophen-2-yl)pyrrolo[2,1-f][1,2,4]triazin-7-yl}methyl)piperazin-2-one formiate], in that order: 3.7 nM and 5%. The like results for `COc1cc(C)cc2cc(-c3c(CO)c(C)n4ncnc(N)c34)sc12` [Example 75, [4-Amino-5-(7-methoxy-5-methyl-1-benzothiophen-2-yl)-7-methylpyrrolo[2,1-f][1,2,4]triazin-6-yl]-methanol] were, in that order, 1.5 nM and 10.2%. `COc1cc(C)cc2cc(-c3c(CNCC(C)(C)O)c(Cl)n4ncnc(N)c34)sc12` [Example 81, 1-({[4-Amino-7-chloro-5-(7-methoxy-5-methyl-1-benzothiophen-2-yl)pyrrolo[2,1-f][1,2,4]triazin-6-yl]methyl}amino)-2-methylpropan-2-ol formiate] had an IC50 in test [1] of 1.6 nM. Moreover, the inhibition at 1 µM in test [2] is 4.1%. As to `COc1cc(C)cc2cc(-c3c(CNC(C)=O)c(CN4CCNC(=O)C4)n4ncnc(N)c34)sc12` [Example 67, N-({4-Amino-5-(7-methoxy-5-methyl-1-benzothiophen-2-yl)-7-[(3-oxopiperazin-1-yl)methyl]-pyrrolo[2,1-f][1,2,4]triazin-6-yl}methyl)acetamide], inhibition in test [1] was half-maximal at 12.1 nM (IC50). Also, the inhibition at 1 µM in test [2] turned out to be 8.4%.

For the molecule `CCOCc1c(-c2cc3cc(C)cc(OC)c3s2)c2c(N)ncnn2c1CN1CCNC(=O)C1` [Example 5, 4-{[4-Amino-6-(ethoxymethyl)-5-(7-methoxy-5-methyl-1-benzothiophen-2-yl)pyrrolo[2,1-f][1,2,4]-triazin-7-yl]methyl}piperazin-2-one], the inhibition at 1 µM in test [2] is 9.7%. Same read-out and setting: the same measure for `CCOCc1c(-c2cc3cc(C)cc(OC)c3s2)c2c(N)ncnn2c1Cl` [Example 83, 7-Chloro-6-(ethoxymethyl)-5-(7-methoxy-5-methyl-1-benzothiophen-2-yl)pyrrolo[2,1-f][1,2,4]-triazin-4-amine]: 6.3%; for `CCOCc1c(-c2cc3cc(C)cc(OC)c3s2)c2c(N)ncnn2c1CN[C@@H]1CCNC1=O` [Example 8, (3R)-3-({[4-Amino-6-(ethoxymethyl)-5-(7-methoxy-5-methyl-1-benzothiophen-2-yl)pyrrolo[2,1-f]-[1,2,4]triazin-7-yl]methyl}amino)pyrrolidin-2-one]: 7.8%; for `COCc1c(-c2cc3cccc(OC)c3s2)c2c(N)ncnn2c1CN1CCNC(=O)C1` [Example 88, 4-{[4-Amino-5-(7-methoxy-1-benzothiophen-2-yl)-6-(methoxymethyl)pyrrolo[2,1-f][1,2,4]triazin-7-yl]methyl}piperazin-2-one]: 5.3%. The same measure, in the same setting: the same measure for `COc1cc(C)cc2cc(-c3c(COc4ccccc4)c(CN4CCNCC4)n4ncnc(N)c34)sc12` [Example 35, 5-(7-Methoxy-5-methyl-1-benzothiophen-2-yl)-6-(phenoxymethyl)-7-(piperazin-1-ylmethyl)pyrrolo[2,1-f][1,2,4]triazin-4-amine bis(formiate)]: 1.4%; for `COc1cc(C)cc2cc(-c3c(COCC4CC4)c(CN4CCNCC4)n4ncnc(N)c34)sc12` [Example 25, 6-[(Cyclopropylmethoxy)methyl]-5-(7-methoxy-5-methyl-1-benzothiophen-2-yl)-7-(piperazin-1-ylmethyl)pyrrolo[2,1-f][1,2,4]triazin-4-amine bis(formiate)]: 3.5%; for `COc1cc(C)cc2cc(-c3c(CN4CCCC(O)C4)c(CN4CCNCC4)n4ncnc(N)c34)sc12` (racemic) [Example 40, rac-1-{[4-Amino-5-(7-methoxy-5-methyl-1-benzothiophen-2-yl)-7-(piperazin-1-ylmethyl)pyrrolo[2,1-f][1,2,4]triazin-6-yl]methyl}piperidin-3-ol trihydrochloride]: 0.1%.

For `COc1cc(C)cc2cc(-c3c(CN(C)C)c(CN4CCNCC4)n4ncnc(N)c34)sc12` [Example 37, 6-[(Dimethylamino)methyl]-5-(7-methoxy-5-methyl-1-benzothiophen-2-yl)-7-(piperazin-1-ylmethyl)pyrrolo[2,1-f][1,2,4]triazin-4-amine trihydrochloride], in test [2], the inhibition at 1 µM was 8.6%. The same measure, in the same setting: to `CNCc1c(-c2cc3cc(C)cc(OC)c3s2)c2c(N)ncnn2c1CN1CCNCC1` [Example 36, 5-(7-Methoxy-5-methyl-1-benzothiophen-2-yl)-6-[(methylamino)methyl]-7-(piperazin-1-ylmethyl)pyrrolo[2,1-f][1,2,4]triazin-4-amine trihydrochloride] belongs 14.4%. Still for that read-out and setting: the same measure for `CCOCc1c(-c2cc3cc(C)cc(OC)c3s2)c2c(N)ncnn2c1CN1CCNC1=O` [Example 87, 1-{[4-Amino-6-(ethoxymethyl)-5-(7-methoxy-5-methyl-1-benzothiophen-2-yl)pyrrolo[2,1-f][1,2,4]-triazin-7-yl]methyl}imidazolidin-2-one]: 12.7%. On to `CCOCc1c(-c2cc3cc(C)cc(OC)c3s2)c2c(N)ncnn2c1CN1CCOCC1` [Example 10, 6-(Ethoxymethyl)-5-(7-methoxy-5-methyl-1-benzothiophen-2-yl)-7-(morpholin-4-ylmethyl)pyrrolo[2,1-f][1,2,4]triazin-4-amine], for which the inhibition at 1 µM in test [2] turned out to be 6%. The same measure, in the same setting: to `COc1cc(C)cc2cc(-c3c(CNC(C)=O)c(CN4CCN(C=O)CC4)n4ncnc(N)c34)sc12` [Example 65, N-({4-Amino-7-[(4-formylpiperazin-1-yl)methyl]-5-(7-methoxy-5-methyl-1-benzothiophen-2-yl)pyrrolo[2,1-f][1,2,4]triazin-6-yl}methyl)acetamide formiate] belongs 13.9%.
